Test results published in the NIST ThermoML archive (doi:10.1016/j.jct.2015.12.014).
± gives the expanded uncertainty stated by the source.

Key:
[1] = Crystal; for vapor or sublimation pressure: Calculated from knudsen effusion weight loss
[2] = Molar enthalpy of transition or fusion; conditions: Crystal; DSC
[3] = molar heat capacity at constant pressure; conditions: 101.33 kPa, Crystal, Small sample (50 mg) DSC

O=C(O)/C=C\c1ccccc1 [cis-cinnamic acid]
Conditions	Normal melting temperature [°C]	molar heat capacity at constant pressure [J/K/mol]	vapor or sublimation pressure [kPa]
[1], 306.21 K	–	–	8.16e-05 ± 1e-05
[1], 308.18 K	–	–	0.0001123 ± 1.1e-05
[1], 310.2 K	–	–	0.0001346 ± 1.1e-05
[1], 312.15 K	–	–	0.0001819 ± 1.2e-05
[1], 314.14 K	–	–	0.0002297 ± 1.3e-05
[1], 316.16 K	–	–	0.0002837 ± 1.4e-05
[1], 318.1 K	–	–	0.0003808 ± 1.7e-05
[1], 320.19 K	–	–	0.0004592 ± 1.9e-05
[1], 322.05 K	–	–	0.000572 ± 2.3e-05
[1], 324.08 K	–	–	0.0007647 ± 3e-05
[1], 326.1 K	–	–	0.0009201 ± 3.6e-05
[1], DTA	67.0 ± 0.7	–	–
[3], 257.15 K	–	155 ± 5.1	–
[3], 258.15 K	–	155.9 ± 5.2	–
[3], 259.15 K	–	156 ± 5.2	–
[3], 260.15 K	–	156.5 ± 5.2	–
[3], 261.15 K	–	156.9 ± 5.2	–
[3], 262.15 K	–	157.5 ± 5.2	–
[3], 263.15 K	–	158.1 ± 5.2	–
[3], 264.15 K	–	158.7 ± 5.3	–
[3], 265.15 K	–	159.1 ± 5.3	–
[3], 266.15 K	–	159.7 ± 5.3	–
[3], 267.15 K	–	160.2 ± 5.3	–
[3], 268.15 K	–	160.8 ± 5.3	–
[3], 269.15 K	–	161.2 ± 5.3	–
[3], 270.15 K	–	161.6 ± 5.4	–
[3], 271.15 K	–	162.2 ± 5.4	–
[3], 272.15 K	–	163 ± 5.4	–
[3], 273.15 K	–	163.3 ± 5.4	–
[3], 274.15 K	–	163.9 ± 5.4	–
[3], 275.15 K	–	164.3 ± 5.5	–
[3], 276.15 K	–	165.3 ± 5.5	–
[3], 277.15 K	–	165.8 ± 5.5	–
[3], 278.15 K	–	166.2 ± 5.5	–
[3], 279.15 K	–	166.7 ± 5.5	–
[3], 280.15 K	–	167.3 ± 5.6	–
[3], 281.15 K	–	167.9 ± 5.6	–
[3], 282.15 K	–	168.5 ± 5.6	–
[3], 283.15 K	–	169.1 ± 5.6	–
[3], 284.15 K	–	169.5 ± 5.6	–
[3], 285.15 K	–	170.4 ± 5.7	–
[3], 286.15 K	–	170.8 ± 5.7	–
[3], 287.15 K	–	171.4 ± 5.7	–
[3], 288.15 K	–	171.9 ± 5.7	–
[3], 289.15 K	–	172.6 ± 5.7	–
[3], 290.15 K	–	173.2 ± 5.7	–
[3], 291.15 K	–	173.9 ± 5.8	–
[3], 292.15 K	–	174.5 ± 5.8	–
[3], 293.15 K	–	175.1 ± 5.8	–
[3], 294.15 K	–	175.9 ± 5.8	–
[3], 295.15 K	–	176.5 ± 5.9	–
[3], 296.15 K	–	176.9 ± 5.9	–
[3], 297.15 K	–	177.6 ± 5.9	–
[3], 298.15 K	–	178.1 ± 5.9	–
[3], 299.15 K	–	178.7 ± 5.9	–
[3], 300.15 K	–	179.1 ± 5.9	–
[3], 301.15 K	–	179.9 ± 6	–
[3], 302.15 K	–	180.6 ± 6	–
[3], 303.15 K	–	181.3 ± 6	–
[3], 304.15 K	–	182.1 ± 6	–
[3], 305.15 K	–	183 ± 6.1	–
[3], 306.15 K	–	183.7 ± 6.1	–
[3], 307.15 K	–	184.6 ± 6.1	–
[3], 308.15 K	–	185.3 ± 6.1	–
[3], 309.15 K	–	185.9 ± 6.2	–
[3], 310.15 K	–	186.8 ± 6.2	–
[3], 311.15 K	–	187.9 ± 6.2	–
[3], 312.15 K	–	188.6 ± 6.3	–
[3], 313.15 K	–	189.3 ± 6.3	–
[3], 314.15 K	–	190.2 ± 6.3	–
[3], 315.15 K	–	191.3 ± 6.3	–
[3], 316.15 K	–	192.3 ± 6.4	–
[3], 317.15 K	–	193.5 ± 6.4	–
[3], 318.15 K	–	194.5 ± 6.5	–
[3], 319.15 K	–	195.9 ± 6.5	–
[3], 320.15 K	–	197.5 ± 6.6	–
[3], 321.15 K	–	199.1 ± 6.6	–
[3], 322.15 K	–	201.1 ± 6.7	–

Conditions	Molar enthalpy of transition or fusion [kcal/mol]
[2]	4.02 ± 0.239
